Holding throughout (test): Nanosyn kinase profiling
Common to all, as to format: biochemical
What all share (settings): read-out: Percentage inhibition; for inhibition at 0.1 µM: 0.1 µM inhibitor; for inhibition at 1 µM: 1 µM inhibitor

The target in one assay is T1, BRSK2 (Homo sapiens, UniProt Q8IWQ3).
T1 construct: purchased Nanosyn (enzymatic panel); SGC in-house recombinant human kinases (DSF panel); Invitrogen (ALK1-6)
T1 sequence (Q8IWQ3 1-736): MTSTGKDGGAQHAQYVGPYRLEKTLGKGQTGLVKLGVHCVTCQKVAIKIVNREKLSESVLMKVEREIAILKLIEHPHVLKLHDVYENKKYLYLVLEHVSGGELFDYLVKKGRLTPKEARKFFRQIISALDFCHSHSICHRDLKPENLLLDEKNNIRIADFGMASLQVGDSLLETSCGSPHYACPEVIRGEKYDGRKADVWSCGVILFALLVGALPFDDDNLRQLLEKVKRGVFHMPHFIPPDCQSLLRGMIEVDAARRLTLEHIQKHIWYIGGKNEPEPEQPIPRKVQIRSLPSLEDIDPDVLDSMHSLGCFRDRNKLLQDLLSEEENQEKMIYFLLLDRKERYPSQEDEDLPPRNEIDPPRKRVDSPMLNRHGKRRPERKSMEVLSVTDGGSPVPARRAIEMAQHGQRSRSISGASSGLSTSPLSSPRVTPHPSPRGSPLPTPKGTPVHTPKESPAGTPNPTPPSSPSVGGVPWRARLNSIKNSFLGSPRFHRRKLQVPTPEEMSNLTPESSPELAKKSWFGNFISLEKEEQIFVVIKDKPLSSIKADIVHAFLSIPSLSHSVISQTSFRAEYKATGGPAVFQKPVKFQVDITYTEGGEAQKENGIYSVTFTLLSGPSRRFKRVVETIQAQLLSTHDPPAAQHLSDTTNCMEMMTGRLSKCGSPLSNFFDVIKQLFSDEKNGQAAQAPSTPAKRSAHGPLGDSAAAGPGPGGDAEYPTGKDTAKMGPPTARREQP
A digest of the protocol:
(§1)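 Percent inhibition of each kinase was measured with the inhibitor at 0.1 µM and at 1 µM, as part of a 200-kinase human selectivity panel.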

For the next assay, the target named is T2, CDK6/cycD3 (Homo sapiens, UniProt Q00534).
T2 construct: purchased Nanosyn (enzymatic panel); SGC in-house recombinant human kinases (DSF panel); Invitrogen (ALK1-6)
T2 sequence (Q00534 whole entry): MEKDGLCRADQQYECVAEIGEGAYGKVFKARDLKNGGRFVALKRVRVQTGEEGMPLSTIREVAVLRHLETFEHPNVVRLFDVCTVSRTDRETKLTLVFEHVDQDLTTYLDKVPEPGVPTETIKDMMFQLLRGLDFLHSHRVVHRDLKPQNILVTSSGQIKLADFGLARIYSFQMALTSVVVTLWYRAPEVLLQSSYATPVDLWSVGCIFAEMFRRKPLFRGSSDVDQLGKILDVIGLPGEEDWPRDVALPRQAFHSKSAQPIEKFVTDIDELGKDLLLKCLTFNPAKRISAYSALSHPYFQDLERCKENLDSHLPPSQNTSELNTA
T2 sequence (P30281 whole entry partner): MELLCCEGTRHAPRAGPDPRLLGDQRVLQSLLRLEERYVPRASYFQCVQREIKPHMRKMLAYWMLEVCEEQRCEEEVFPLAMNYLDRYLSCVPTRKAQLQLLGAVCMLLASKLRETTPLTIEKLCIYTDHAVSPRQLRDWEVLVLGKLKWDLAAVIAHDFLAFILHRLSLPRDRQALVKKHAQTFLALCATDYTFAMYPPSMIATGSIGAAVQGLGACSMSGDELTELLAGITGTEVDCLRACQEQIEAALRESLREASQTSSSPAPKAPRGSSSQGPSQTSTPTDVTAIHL
A digest of the protocol: as §1

For another assay, the target named is T3, DYRK2 (Homo sapiens, UniProt Q92630).
T3 construct: purchased Nanosyn (enzymatic panel); SGC in-house recombinant human kinases (DSF panel); Invitrogen (ALK1-6)
T3 sequence (Q92630 1-601): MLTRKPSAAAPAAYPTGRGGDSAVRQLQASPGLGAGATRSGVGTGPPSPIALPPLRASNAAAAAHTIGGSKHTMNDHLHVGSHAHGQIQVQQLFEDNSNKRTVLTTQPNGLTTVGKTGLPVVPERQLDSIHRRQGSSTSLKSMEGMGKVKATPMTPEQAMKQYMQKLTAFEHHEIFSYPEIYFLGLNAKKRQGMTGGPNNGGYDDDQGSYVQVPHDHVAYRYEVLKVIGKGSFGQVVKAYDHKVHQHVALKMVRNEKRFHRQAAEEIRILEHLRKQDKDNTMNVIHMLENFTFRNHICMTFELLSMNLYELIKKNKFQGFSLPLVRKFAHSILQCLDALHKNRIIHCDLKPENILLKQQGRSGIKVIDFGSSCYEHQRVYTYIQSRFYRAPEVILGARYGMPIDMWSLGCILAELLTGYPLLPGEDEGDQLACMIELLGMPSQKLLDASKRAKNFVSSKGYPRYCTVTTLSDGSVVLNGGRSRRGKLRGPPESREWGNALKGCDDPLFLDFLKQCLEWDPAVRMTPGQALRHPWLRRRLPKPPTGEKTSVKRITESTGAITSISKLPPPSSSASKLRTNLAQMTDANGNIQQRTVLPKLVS
A digest of the protocol: as §1

The target of another assay is T4, JAK2 (Homo sapiens, UniProt O60674).
T4 construct: purchased Nanosyn (enzymatic panel); SGC in-house recombinant human kinases (DSF panel); Invitrogen (ALK1-6)
T4 sequence (O60674 whole entry): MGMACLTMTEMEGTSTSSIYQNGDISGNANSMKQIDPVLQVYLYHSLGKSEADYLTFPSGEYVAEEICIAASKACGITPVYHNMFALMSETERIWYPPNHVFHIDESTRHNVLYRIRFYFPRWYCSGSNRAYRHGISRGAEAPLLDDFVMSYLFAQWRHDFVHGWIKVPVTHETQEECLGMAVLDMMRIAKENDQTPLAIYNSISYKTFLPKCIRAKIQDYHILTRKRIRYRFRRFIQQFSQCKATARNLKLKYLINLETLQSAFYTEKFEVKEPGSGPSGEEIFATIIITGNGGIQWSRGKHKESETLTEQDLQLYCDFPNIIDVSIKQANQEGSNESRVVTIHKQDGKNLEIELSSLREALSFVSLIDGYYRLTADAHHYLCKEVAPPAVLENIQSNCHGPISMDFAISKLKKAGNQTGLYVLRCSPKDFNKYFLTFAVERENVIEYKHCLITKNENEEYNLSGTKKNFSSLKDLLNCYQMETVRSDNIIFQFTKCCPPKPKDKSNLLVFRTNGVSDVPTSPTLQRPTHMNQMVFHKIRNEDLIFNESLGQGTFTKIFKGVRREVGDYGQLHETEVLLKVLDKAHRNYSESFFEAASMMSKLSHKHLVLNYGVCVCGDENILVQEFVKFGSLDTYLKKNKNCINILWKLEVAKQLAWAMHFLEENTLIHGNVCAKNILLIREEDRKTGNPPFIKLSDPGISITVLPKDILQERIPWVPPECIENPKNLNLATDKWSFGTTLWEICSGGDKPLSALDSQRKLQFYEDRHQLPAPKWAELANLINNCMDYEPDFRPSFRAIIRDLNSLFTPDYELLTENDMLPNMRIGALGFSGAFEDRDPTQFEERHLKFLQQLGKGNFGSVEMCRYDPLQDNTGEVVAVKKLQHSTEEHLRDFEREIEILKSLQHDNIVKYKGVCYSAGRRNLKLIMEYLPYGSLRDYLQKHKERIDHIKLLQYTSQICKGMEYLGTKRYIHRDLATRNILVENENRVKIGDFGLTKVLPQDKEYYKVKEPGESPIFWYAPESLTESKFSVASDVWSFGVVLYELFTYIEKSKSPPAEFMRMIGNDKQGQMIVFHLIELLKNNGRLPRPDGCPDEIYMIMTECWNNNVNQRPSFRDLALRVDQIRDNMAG
In short, it runs like this:
as §1

The target in the next assay is T5, HCK (Homo sapiens, UniProt P08631).
T5 construct: purchased Nanosyn (enzymatic panel); SGC in-house recombinant human kinases (DSF panel); Invitrogen (ALK1-6)
T5 sequence (P08631 whole entry): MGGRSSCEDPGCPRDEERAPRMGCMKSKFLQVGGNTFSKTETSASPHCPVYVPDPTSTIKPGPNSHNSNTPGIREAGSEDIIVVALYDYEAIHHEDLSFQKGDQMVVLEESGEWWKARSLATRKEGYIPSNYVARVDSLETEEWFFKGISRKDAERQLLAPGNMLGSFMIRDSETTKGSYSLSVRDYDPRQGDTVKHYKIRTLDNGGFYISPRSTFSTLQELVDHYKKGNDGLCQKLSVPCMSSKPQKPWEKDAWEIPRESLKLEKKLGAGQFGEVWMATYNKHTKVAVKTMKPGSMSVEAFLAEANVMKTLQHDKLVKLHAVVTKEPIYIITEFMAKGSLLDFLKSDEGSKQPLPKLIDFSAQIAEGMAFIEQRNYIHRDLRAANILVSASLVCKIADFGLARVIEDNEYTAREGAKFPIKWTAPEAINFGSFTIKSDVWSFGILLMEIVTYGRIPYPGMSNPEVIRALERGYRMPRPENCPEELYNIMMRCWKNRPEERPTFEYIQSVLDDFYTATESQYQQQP
In short, it runs like this:
as §1

Another assay has as its target T6, MKNK1 (Homo sapiens, UniProt Q9BUB5).
T6 construct: purchased Nanosyn (enzymatic panel); SGC in-house recombinant human kinases (DSF panel); Invitrogen (ALK1-6)
In short, it runs like this: as §1

For the next assay, the target named is T7, PRKG2 (Homo sapiens, UniProt Q13237).
T7 construct: purchased Nanosyn (enzymatic panel); SGC in-house recombinant human kinases (DSF panel); Invitrogen (ALK1-6)
T7 sequence (Q13237 1-762): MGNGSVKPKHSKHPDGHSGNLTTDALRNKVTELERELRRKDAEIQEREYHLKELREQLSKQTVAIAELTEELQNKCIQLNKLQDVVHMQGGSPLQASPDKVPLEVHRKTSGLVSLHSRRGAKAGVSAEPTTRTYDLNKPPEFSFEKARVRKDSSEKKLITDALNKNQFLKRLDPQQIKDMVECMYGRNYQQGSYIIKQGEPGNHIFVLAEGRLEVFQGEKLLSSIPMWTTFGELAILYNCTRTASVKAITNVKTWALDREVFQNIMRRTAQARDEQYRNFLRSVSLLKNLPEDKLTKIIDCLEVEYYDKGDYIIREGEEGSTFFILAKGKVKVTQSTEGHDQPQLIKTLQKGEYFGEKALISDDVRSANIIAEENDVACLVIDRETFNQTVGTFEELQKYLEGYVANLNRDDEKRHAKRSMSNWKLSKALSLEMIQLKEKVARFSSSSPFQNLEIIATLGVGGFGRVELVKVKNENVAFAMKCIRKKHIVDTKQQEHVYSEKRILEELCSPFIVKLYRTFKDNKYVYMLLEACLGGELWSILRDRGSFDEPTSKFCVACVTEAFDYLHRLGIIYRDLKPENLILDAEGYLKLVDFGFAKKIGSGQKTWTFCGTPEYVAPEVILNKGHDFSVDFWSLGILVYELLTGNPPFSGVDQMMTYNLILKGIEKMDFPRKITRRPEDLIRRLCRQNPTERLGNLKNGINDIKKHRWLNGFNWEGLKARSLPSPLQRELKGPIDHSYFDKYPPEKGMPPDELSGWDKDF
In short, it runs like this:
as §1

Another assay deals with T8, GSK3β (Homo sapiens, UniProt P49841).
T8 construct: purchased Nanosyn (enzymatic panel); SGC in-house recombinant human kinases (DSF panel); Invitrogen (ALK1-6)
T8 sequence (P49841 whole entry): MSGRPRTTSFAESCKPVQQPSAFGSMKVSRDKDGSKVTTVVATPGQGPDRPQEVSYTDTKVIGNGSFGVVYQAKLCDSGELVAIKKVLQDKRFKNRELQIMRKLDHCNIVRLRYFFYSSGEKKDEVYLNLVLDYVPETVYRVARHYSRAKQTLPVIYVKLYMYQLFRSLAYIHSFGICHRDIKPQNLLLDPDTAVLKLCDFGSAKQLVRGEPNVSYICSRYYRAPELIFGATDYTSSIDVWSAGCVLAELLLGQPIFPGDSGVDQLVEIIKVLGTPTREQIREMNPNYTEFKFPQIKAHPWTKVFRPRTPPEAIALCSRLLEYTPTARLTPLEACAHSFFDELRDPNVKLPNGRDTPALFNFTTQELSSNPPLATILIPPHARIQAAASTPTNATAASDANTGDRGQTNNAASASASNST
In short, it runs like this:
as §1

The next assay addresses T9, GSK3α (Homo sapiens, UniProt P49840).
T9 construct: purchased Nanosyn (enzymatic panel); SGC in-house recombinant human kinases (DSF panel); Invitrogen (ALK1-6)
In short, it runs like this: as §1

T6 sequence (Q9BUB5 whole entry): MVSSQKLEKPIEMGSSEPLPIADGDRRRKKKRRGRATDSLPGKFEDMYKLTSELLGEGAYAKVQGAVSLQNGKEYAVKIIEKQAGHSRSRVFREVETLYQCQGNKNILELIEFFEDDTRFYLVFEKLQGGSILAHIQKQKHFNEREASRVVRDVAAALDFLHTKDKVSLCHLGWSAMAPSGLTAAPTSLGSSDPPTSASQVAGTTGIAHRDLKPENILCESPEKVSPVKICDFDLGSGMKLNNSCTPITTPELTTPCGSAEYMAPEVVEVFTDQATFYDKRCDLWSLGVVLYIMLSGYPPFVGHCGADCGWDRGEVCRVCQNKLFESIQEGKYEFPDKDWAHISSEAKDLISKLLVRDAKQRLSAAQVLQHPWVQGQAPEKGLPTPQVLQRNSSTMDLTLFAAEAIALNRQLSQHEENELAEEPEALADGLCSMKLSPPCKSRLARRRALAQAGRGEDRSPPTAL
T9 sequence (P49840 whole entry): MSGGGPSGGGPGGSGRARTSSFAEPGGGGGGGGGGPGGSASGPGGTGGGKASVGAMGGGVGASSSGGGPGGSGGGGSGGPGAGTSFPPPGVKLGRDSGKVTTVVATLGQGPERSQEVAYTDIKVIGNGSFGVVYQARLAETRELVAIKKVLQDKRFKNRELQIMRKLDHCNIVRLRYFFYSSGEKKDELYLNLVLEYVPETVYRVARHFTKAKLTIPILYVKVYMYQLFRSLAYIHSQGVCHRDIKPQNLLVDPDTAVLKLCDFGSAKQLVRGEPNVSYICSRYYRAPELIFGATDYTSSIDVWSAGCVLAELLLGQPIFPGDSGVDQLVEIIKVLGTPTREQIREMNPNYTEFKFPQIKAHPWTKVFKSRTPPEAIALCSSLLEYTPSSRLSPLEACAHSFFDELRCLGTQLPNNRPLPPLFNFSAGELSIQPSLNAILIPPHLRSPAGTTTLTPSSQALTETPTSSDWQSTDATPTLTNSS

One may read the inhibition as the drop in the measured response relative to a control, in per cent. Turning to `c1ccc2c(-c3cnn4cc(-c5ccc(N6CCNCC6)cc5)cnc34)ccnc2c1` [LDN-193189], the inhibition at 0.1 µM on BRSK2 was found to be 4.4%; on CDK6/cycD3, 7.2%; on DYRK2 it was 2.3%; at JAK2 it was 2%; on HCK, 9.7%; at MKNK1, 7.1%. Moreover, the inhibition at 0.1 µM turned out to be 1.7% at PRKG2, 2.7% on GSK3β and 3.2% on GSK3α. The inhibition at 1 µM at BRSK2 turned out to be 22%; at CDK6/cycD3 it was 22%; on DYRK2 it was 0.2%; on JAK2, 0.5%; on HCK, 33%; at MKNK1, 37%. Further, the inhibition at 1 µM at PRKG2 was 9.3%; at GSK3β it was 2.1%; on GSK3α, 1.1%.

Consider `COc1cc(-c2cc(-c3cccc(O)c3)cnc2N)cc(OC)c1OC` [K02288, 3-[6-amino-5-(3,4,5-trimethoxy-phenyl)-pyridin-3-yl]-phenol], for which the inhibition at 0.1 µM on BRSK2 was 0.9%; at CDK6/cycD3, 1.7%; at DYRK2, -1%; at JAK2, 0%; at HCK it was 8.9%; at MKNK1, 0.7%. Moreover, the inhibition at 0.1 µM at PRKG2 is 1%; on GSK3β, 0.5%; at GSK3α, 0.6%. The inhibition at 1 µM is 2.7% on BRSK2; 2.8% at CDK6/cycD3; -3% at DYRK2; 0% on JAK2; 51% at HCK; 1.3% at MKNK1. Also, the inhibition at 1 µM at PRKG2 was found to be 5%; at GSK3β it was 1.6%; at GSK3α it was 2.1%.

The values above are taken from PMC3639963, “A New Class of Small Molecule Inhibitor of BMP Signaling” (PLoS ONE, 2013).
